Columns and labels:
[1] = molecular target: 5-hydroxytryptamine receptor 2A (Homo sapiens, UniProt P28223); assay: Binding affinity at human cloned 5-hydroxytryptamine 2A receptor.
[2] = molecular target: 5-hydroxytryptamine receptor 7 (Homo sapiens, UniProt P34969); assay: Binding affinity at human cloned 5-hydroxytryptamine 7 receptor.
[3] = molecular target: T1, 5-hydroxytryptamine receptor 1A (Homo sapiens, UniProt P08908); assay: Binding affinity towards 5-hydroxytryptamine 1A receptor in human using [3H]8-OH-DPAT as radioligand
T1 sequence (P08908 whole entry): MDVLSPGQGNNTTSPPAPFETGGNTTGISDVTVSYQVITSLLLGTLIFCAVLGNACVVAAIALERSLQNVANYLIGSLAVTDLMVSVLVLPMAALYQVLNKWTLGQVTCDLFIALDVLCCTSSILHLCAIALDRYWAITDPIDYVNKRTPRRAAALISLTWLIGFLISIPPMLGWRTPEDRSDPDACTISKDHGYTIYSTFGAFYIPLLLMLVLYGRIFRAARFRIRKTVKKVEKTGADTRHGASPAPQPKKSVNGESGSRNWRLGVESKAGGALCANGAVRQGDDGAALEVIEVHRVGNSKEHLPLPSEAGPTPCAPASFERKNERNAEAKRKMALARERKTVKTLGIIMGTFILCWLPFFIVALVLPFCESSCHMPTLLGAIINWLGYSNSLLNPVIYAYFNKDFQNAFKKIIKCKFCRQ

[4] = molecular target: 5-hydroxytryptamine receptor 1B (Homo sapiens, UniProt P28222); assay: Binding affinity towards cloned human 5-hydroxytryptamine 1B receptor was determined
5-hydroxytryptamine receptor 1B, sequence (P28222 whole entry): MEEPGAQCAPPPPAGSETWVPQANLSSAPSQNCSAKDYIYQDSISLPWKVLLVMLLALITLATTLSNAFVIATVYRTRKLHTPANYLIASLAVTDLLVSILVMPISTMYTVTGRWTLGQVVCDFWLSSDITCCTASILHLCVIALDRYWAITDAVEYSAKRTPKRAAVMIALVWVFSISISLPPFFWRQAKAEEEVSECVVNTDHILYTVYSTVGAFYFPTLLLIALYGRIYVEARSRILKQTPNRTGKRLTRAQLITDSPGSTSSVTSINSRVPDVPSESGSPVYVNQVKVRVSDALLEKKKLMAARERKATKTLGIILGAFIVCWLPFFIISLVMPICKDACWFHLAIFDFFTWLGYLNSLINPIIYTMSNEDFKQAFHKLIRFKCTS

[5] = molecular target: 5-hydroxytryptamine receptor 1E (Homo sapiens, UniProt P28566); assay: Binding affinity towards cloned human 5-hydroxytryptamine 1E receptor was determined
5-hydroxytryptamine receptor 1E, sequence (P28566 whole entry): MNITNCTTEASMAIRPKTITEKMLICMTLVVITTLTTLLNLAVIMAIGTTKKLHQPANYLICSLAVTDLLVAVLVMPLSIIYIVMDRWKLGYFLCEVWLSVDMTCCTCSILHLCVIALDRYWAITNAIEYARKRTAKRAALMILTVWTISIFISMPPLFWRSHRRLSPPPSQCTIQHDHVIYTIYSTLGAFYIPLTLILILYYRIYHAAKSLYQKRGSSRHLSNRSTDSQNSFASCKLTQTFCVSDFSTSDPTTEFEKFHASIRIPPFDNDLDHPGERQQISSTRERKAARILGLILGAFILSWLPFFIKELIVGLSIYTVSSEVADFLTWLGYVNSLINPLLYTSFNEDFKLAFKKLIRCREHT

[6] = molecular target: 5-hydroxytryptamine receptor 1D (Homo sapiens, UniProt P28221); assay: Binding affinity towards cloned human 5-hydroxytryptamine 1D receptor
[7] = molecular target: T2, 5-hydroxytryptamine receptor 2C (Homo sapiens, UniProt P28335); assay: Binding affinity towards cloned human 5-hydroxytryptamine 2C receptor was determined
T2 sequence (P28335 whole entry): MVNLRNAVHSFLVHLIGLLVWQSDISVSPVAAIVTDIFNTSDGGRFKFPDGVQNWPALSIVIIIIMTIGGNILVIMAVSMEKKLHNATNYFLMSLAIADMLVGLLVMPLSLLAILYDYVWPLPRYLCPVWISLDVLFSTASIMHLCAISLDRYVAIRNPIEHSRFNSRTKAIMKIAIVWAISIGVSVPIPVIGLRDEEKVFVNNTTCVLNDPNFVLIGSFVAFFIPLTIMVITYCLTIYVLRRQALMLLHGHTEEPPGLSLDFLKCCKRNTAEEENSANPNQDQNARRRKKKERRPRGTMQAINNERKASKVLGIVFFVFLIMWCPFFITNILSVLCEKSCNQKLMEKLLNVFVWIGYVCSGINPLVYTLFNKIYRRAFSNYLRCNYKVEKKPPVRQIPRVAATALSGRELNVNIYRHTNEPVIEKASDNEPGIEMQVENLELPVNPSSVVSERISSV

[8] = molecular target: 5-hydroxytryptamine receptor 2B (Homo sapiens, UniProt P41595); assay: Binding affinity towards cloned human 5-hydroxytryptamine 2B receptor was determined
5-hydroxytryptamine receptor 2B, sequence (P41595 whole entry): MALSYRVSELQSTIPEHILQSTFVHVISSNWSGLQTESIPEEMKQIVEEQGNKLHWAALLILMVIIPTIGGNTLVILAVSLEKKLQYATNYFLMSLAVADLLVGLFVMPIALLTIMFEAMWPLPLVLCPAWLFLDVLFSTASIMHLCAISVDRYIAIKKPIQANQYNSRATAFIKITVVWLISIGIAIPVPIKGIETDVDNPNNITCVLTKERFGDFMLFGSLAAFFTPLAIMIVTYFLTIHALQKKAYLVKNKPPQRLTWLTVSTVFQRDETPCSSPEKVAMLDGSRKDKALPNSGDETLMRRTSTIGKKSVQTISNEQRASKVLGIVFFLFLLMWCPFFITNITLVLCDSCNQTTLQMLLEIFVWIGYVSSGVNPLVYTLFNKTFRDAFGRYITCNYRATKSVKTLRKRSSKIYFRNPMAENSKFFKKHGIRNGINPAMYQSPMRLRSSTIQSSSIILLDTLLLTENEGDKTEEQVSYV

[9] = molecular target: 5-hydroxytryptamine receptor 6 (Homo sapiens, UniProt P50406); assay: Binding affinity towards human 5-hydroxytryptamine 6 receptor
5-hydroxytryptamine receptor 6, sequence (P50406 whole entry): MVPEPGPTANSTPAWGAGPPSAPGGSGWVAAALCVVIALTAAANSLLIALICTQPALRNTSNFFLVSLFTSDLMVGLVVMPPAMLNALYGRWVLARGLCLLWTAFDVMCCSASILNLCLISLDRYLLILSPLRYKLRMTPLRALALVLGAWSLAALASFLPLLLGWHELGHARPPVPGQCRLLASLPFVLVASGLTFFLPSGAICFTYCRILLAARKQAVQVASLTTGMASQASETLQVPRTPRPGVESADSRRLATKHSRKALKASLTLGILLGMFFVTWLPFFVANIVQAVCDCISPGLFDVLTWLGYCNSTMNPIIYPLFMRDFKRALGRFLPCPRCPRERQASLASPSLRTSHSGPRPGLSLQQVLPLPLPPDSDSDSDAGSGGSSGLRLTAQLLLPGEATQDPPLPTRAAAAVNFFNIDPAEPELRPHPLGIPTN

Cytochrome P450 2C19 = Cytochrome P450 2C19 (Homo sapiens, UniProt P33261); assay: Inhibition of human Cytochrome P450 2C19; format: ADME
Cytochrome P450 2C19, sequence (P33261 whole entry, canonical isoform): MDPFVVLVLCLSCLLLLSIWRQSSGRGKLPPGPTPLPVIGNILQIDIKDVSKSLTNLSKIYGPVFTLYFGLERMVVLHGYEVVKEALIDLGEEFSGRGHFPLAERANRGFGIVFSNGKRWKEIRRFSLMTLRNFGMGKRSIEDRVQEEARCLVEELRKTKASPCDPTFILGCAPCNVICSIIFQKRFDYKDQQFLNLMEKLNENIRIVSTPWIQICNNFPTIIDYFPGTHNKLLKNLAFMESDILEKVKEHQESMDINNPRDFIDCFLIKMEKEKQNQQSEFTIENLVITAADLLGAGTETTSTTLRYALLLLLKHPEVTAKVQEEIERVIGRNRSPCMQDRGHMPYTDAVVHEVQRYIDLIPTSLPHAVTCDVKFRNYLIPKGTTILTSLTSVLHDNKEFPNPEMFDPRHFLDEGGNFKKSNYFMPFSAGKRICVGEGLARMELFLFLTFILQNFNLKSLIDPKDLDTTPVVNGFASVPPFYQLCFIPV

Cytochrome P450 2C9 = Cytochrome P450 2C9 (Homo sapiens, UniProt P11712); assay: Inhibition of human cytochrome P450 isoform 2C9; format: ADME
Cytochrome P450 2D6 = Cytochrome P450 2D6 (Homo sapiens, UniProt P10635); assay: Inhibition of human Cytochrome P450 2D6; format: ADME
Cytochrome P450 2D6, sequence (P10635 whole entry): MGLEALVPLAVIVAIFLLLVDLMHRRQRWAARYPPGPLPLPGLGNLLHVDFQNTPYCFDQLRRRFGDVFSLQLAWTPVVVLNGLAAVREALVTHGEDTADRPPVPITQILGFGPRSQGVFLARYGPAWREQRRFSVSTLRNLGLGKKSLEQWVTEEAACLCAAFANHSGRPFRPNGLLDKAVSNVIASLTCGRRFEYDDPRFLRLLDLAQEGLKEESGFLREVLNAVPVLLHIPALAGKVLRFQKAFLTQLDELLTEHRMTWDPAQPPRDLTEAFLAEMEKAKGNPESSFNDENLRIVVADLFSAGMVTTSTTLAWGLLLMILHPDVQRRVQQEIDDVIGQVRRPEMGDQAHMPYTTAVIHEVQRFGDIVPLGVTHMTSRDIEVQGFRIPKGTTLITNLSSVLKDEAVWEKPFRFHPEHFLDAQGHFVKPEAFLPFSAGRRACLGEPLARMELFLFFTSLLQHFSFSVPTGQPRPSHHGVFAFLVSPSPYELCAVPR

Cytochrome P450 3A4 = Cytochrome P450 3A4 (Homo sapiens, UniProt P08684); assay: Inhibition of human Cytochrome P450 3A4; format: ADME
Cytochrome P450 3A4, sequence (P08684 whole entry): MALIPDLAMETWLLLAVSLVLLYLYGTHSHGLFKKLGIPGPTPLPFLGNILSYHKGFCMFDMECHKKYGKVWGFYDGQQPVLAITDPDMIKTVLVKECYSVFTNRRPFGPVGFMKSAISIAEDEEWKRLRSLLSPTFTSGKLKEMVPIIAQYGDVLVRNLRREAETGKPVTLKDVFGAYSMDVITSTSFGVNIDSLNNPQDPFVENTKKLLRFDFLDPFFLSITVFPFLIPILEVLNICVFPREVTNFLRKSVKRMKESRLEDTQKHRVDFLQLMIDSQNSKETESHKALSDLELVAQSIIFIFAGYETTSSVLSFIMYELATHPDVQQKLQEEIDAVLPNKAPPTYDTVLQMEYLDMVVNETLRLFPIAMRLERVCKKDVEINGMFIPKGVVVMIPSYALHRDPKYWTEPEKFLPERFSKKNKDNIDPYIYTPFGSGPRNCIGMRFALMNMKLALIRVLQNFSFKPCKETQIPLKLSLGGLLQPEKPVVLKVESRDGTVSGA

D(4) dopamine receptor = molecular target: T3, D(4) dopamine receptor (Homo sapiens, UniProt P21917); assay: Binding affinity towards cloned human dopamine D4 receptor was determined
T3 sequence (P21917 whole entry): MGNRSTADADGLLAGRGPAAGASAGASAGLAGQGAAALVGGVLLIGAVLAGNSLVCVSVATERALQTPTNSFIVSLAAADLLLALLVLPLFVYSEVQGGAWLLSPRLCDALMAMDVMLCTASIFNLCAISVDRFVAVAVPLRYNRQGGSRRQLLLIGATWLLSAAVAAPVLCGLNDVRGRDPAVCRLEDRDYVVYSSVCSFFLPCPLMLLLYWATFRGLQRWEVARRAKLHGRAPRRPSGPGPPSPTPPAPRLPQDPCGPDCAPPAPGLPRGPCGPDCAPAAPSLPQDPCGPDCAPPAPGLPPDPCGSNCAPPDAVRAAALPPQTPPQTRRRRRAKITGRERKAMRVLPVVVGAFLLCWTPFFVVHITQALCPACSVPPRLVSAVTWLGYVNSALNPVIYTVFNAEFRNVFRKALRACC

D(3) dopamine receptor = D(3) dopamine receptor (Homo sapiens, UniProt P35462); assay: Binding affinity towards cloned human dopamine D3 receptor was determined
D(3) dopamine receptor, sequence (P35462 whole entry): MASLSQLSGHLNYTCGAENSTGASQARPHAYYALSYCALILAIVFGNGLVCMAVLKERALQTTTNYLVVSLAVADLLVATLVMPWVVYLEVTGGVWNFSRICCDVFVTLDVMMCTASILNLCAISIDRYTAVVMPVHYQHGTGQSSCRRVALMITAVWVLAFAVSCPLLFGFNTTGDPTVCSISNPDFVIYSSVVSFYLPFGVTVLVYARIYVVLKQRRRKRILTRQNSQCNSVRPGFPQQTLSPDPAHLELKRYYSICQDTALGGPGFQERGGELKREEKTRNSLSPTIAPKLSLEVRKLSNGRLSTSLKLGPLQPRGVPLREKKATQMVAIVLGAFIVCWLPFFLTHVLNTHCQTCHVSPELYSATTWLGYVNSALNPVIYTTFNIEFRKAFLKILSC

[10] = molecular target: T4, 5-hydroxytryptamine receptor 1F (Homo sapiens, UniProt P30939); assay: Binding affinity towards cloned human 5-hydroxytryptamine 1F receptor was determined
T4 sequence (P30939 whole entry): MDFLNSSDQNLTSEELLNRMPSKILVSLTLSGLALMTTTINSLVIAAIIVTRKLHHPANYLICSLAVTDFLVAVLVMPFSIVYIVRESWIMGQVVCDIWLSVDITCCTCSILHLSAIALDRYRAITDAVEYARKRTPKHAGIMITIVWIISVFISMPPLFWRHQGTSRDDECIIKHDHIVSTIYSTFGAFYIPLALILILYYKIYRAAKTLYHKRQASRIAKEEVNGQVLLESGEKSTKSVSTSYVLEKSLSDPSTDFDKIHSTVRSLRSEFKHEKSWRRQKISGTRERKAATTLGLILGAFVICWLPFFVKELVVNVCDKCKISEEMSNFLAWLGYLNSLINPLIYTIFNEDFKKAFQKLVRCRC

[11] = molecular target: 5-hydroxytryptamine receptor 5A (Homo sapiens, UniProt P47898); assay: Binding affinity towards cloned human 5-HT5A receptor was determined
5-hydroxytryptamine receptor 5A, sequence (P47898 whole entry): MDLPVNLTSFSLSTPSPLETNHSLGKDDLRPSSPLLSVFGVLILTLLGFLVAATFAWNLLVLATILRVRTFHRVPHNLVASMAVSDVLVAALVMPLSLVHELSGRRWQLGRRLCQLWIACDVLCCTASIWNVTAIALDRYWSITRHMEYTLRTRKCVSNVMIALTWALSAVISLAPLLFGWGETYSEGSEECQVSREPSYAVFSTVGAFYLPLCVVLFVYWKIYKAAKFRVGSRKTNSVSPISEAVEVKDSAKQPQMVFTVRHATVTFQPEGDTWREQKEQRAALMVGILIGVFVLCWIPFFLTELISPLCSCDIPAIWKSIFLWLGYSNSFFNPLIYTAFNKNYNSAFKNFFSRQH

Cytochrome P450 1A2 = molecular target: T5, Cytochrome P450 1A2 (Homo sapiens, UniProt P05177); assay: Inhibition of human Cytochrome P450 1A2; format: ADME
T5 sequence (P05177 whole entry): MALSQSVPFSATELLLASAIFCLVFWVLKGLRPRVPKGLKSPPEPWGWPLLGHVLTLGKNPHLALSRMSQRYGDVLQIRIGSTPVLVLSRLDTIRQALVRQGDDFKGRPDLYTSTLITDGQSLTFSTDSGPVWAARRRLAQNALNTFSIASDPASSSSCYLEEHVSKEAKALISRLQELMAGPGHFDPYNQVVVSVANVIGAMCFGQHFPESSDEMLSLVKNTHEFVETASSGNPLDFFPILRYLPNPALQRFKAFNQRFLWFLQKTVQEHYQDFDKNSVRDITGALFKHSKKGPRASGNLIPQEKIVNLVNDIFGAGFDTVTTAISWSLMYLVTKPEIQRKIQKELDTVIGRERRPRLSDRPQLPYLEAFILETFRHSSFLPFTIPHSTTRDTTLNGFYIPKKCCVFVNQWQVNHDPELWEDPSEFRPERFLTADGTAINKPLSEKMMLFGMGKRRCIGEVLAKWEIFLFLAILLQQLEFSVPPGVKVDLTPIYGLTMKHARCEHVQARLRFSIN

5-hydroxytryptamine receptor 7, sequence (P34969 whole entry): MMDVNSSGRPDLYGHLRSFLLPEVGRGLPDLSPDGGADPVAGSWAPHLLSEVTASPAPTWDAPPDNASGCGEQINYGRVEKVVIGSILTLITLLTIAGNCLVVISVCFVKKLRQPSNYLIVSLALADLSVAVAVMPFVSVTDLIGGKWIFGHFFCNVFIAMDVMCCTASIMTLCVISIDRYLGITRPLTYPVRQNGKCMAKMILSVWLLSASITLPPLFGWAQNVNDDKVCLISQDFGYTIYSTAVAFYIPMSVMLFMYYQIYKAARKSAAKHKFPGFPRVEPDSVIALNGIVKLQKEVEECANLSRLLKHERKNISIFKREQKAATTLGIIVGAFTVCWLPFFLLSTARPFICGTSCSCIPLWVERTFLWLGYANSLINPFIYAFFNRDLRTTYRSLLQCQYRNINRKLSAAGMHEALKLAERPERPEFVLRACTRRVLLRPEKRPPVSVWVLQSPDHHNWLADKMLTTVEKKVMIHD
5-hydroxytryptamine receptor 2A, sequence (P28223 whole entry): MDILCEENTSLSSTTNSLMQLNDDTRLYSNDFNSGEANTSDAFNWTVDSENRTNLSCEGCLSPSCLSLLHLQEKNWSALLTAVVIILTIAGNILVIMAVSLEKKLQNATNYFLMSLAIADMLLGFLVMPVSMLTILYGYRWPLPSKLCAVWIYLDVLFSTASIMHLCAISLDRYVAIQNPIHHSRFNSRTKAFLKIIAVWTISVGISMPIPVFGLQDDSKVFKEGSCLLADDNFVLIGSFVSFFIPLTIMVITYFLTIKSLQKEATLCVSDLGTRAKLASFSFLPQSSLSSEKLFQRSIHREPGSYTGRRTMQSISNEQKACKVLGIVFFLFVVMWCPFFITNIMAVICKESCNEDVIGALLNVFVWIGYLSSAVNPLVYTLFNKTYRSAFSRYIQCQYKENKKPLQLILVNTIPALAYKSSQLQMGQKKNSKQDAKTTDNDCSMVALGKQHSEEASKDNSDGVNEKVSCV

Row | SMILES | Ki [1] [nM] | Ki [2] [nM] | also measured
1 | O=C1c2ccccc2CCCN1CCN1CCC(n2c(O)nc3ccccc32)CC1 | > 1580 | 10.2 | –
2 | O=C1c2ccccc2CCCN1CCN1CCC(n2ccc3ccccc32)CC1 | 19.5 | 2.75 | –
3 | O=C1c2ccccc2CCCN1CCN1CCC(Oc2ccccc2)CC1 | 155 | 20.4 | –
4 | COc1ccccc1C1CCN(CC2CCc3ccccc3C(=O)C2)CC1 (stereo not given) | – | 11.2 | –
5 | Cc1ccccc1OC1CCN(CCC2CCCc3ccccc3C2=O)CC1 (stereo not given) | – | 11.2 | –
6 | O=C1CC(CN2CCC(Oc3ccccc3)CC2)CCc2ccccc21 (stereo not given) | – | 18.6 | –
7 | O=C1c2ccccc2CCCN1CCN1CCC(Oc2ccc(Cl)cc2)CC1 | 74.1 | 11.7 | –
8 | O=C1c2ccccc2CCCC1CCN1CCC(Oc2ccccc2)CC1 (stereo not given) | – | 25.1 | –
9 | O=C1c2ccccc2CCCN1CCN1CCC(c2c[nH]c3ccccc23)CC1 | 1.7 | 0.407 | –
10 | O=C1c2ccccc2CCCN1CCN1CCC(n2c(=O)oc3ccccc32)CC1 | 977 | 27.5 | –
11 | O=C(c1ccc(F)cc1)C1CCN(CCN2CCCc3ccccc3C2=O)CC1 | 17 | 1.66 | –
12 | O=C1c2ccccc2CCCN1CCN1CCC(n2nnc3ccccc32)CC1 | 269 | 14.1 | –
13 | O=C1c2ccccc2CCCN1CCN1CCC(n2c(=O)oc3cc(F)ccc32)CC1 | 186 | 9.33 | –
14 | O=C(c1ccc(Cl)cc1)C1CCN(CCN2CCCc3ccccc3C2=O)CC1 | 77.6 | 2.51 | –
15 | O=C1c2ccccc2CCCN1CCN1CCC(n2c(=O)[nH]c3cc(F)ccc32)CC1 | 302 | 2.24 | Ki [3]: 479 nM; Ki [4]: > 3980 nM; Ki [5]: > 10000 nM; Ki [6]: 2400 nM; Ki [7]: 3310 nM; Ki [8]: 1000 nM; Ki [9]: > 5010 nM; IC50 (Cytochrome P450 2C19): > 100000 nM; IC50 (Cytochrome P450 2C9): 35000 nM; IC50 (Cytochrome P450 2D6): 10000 nM; IC50 (Cytochrome P450 3A4): > 100000 nM; Ki (D(4) dopamine receptor): 1230 nM; Ki (D(3) dopamine receptor): 1700 nM; Ki [10]: > 10000 nM; Ki [11]: 1480 nM; IC50 (Cytochrome P450 1A2): 62000 nM
16 | O=C1c2ccccc2CCCN1CCN1CCC(Oc2ccc(F)cc2)CC1 | 31.6 | 4.47 | –
17 | O=C1c2ccccc2CCCN1CCN1CCC(n2nnc3cc(F)ccc32)CC1 | 49 | 2.04 | –
18 | Cc1ccc(OC2CCN(CCN3CCCc4ccccc4C3=O)CC2)cc1 | 55 | 9.12 | –
19 | O=C1c2ccccc2CCCN1CCN1CCC(n2ccc3cc(F)ccc32)CC1 | 6.92 | 0.562 | –

Reference: ChEMBL document CHEMBL1136643, “Identification of a novel series of selective 5-HT7 receptor antagonists” (Bioorg Med Chem Lett, 2003)
